Key:
Format in all cases: biochemical
[1] = molecular target: T1, PIP4K2A (Homo sapiens, UniProt P48426); assay: ADP-glo kinase assay PIP4K 2A (Table 3); set-up: made in house; host or cells: E. coli; settings: compounds listed under IC50 bins
T1 sequence (P48426 1-406): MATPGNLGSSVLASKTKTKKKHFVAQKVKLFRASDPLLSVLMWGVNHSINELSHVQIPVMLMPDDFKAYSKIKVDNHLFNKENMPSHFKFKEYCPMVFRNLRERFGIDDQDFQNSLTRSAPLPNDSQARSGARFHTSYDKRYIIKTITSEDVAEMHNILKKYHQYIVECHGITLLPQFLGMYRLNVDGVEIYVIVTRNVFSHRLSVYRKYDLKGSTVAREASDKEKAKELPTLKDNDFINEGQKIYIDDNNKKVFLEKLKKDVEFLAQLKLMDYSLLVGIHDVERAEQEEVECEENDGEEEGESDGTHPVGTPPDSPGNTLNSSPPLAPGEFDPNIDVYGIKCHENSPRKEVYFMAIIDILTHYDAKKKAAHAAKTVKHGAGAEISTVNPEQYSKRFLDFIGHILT
Procedure, shortened: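 Full-length PIP4K2A (4 nM in the mix) with 100 μM PI(5)P diC8 pre-incubated 15 min with compound in MOPS pH 7.2, 25 mM MgCl2; ATP added (60 μM solution), 1 h at RT. ADP formed read by ADP-Glo luminescence; 10-point curves versus DMSO controls fitted to IC50.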

[2] = molecular target: T2, PIP4K2B (Homo sapiens, UniProt P78356); assay: Trans-FI P kinase assay PIP4K2B (Table 4); settings: compounds listed under IC50 bins; read-out: Trans-FI P kinase assays: PIP4K2B IC50
T2 construct: made in house; host or cells: E. coli
T2 sequence (P78356 1-416): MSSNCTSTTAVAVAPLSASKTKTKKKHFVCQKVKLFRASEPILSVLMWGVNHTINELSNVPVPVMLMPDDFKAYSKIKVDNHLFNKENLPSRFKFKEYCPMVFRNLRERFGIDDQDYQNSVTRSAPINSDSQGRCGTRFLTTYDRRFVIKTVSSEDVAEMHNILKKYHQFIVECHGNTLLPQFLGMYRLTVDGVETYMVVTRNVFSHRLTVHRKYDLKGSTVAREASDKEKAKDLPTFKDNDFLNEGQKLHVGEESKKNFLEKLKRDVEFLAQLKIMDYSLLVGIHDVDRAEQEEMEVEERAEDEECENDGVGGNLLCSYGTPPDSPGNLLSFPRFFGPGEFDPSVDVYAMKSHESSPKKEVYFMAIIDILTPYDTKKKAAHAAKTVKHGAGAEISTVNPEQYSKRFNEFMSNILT
Procedure, shortened: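 Transcreener FI detection (Ex 584/Em 623) of GDP, converted via calibration curve, gives IC50 from residual activity versus log concentration (highest 4.8 μM). Reaction: 80 μM PI5P plus DOPE carrier, 100 μM GTP, 5 nM GST-tagged enzyme, pH 7.3 HEPES with MgCl2 and 5% DMSO, 2 h after 1 h enzyme-compound preincubation at 27° C.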

[3] = molecular target: T1, PIP4K2A; assay: Kinase Assay PIP4K2 A (Table 2); set-up: 4 nM PIP4K2A (full length protein, SignalChem); purchased SignalChem; settings: compounds listed under IC50 bins
Procedure, shortened: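 Full-length PIP4K2A (4 nM in the added mix, with 100 μM PI(5)P diC8) pre-incubated 15 min at RT with compounds (10-point, 3-fold series) in 20 mM MOPS pH 7.2, 25 mM MgCl2, 0.005% Tween 20. ATP added from a 60 μM solution, 1 h at RT; ADP-Glo luminescence, IC50 fitted from % inhibition versus DMSO.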

Row | IC50 [1] [nM] | IC50 [2] [nM] | IC50 [3] [nM] | Compound
1 | > 1000 | > 1000 | > 1000 | CN(C)C(=O)c1cnc(-c2ccc(Nc3cccnc3)nc2)nc1 [Example 29, N,N-dimethyl-2-(6-(pyridin-3-ylamino)pyridin-3-yl)pyrimidine-5-carboxamide]
2 | 100 to 1000 | 10 to 100 | 10 to 100 | CN(C)C(=O)c1ccc(-c2ccc(Nc3cnc4c(c3)N(C(=O)OC(C)(C)C)CCO4)nc2)cc1 [Example 45, tert-butyl 7-((5-(4-(dimethylcarbamoyl)phenyl)pyridin-2-yl)amino)-2,3-dihydro-1H-pyrido[2,3-b][1,4]oxazine-1-carboxylate]
3 | 100 to 1000 | 10 to 100 | 10 to 100 | CN(C)C(=O)c1ccc(-c2ccc(Nc3cnc4c(c3)NCCO4)nc2)cc1 [Example 46, 4-(6-((2,3-dihydro-1H-pyrido[2,3-b][1,4]oxazin-7-yl)amino)pyridin-3-yl)-N,N-dimethylbenzamide]
4 | 100 to 1000 | > 1000 | 100 to 1000 | CN(C)C(=O)c1ccc(-c2ccc(Nc3cncc(OC(F)F)c3)nc2)cc1 [Example 49, 4-(6-((5-(difluoromethoxy)pyridin-3-yl)amino)pyridin-3-yl)-N,N-dimethylbenzamide]
5 | 100 to 1000 | 10 to 100 | 10 to 100 | CN(C)C(=O)c1ccc(-c2ccc(Nc3cnc4c(c3)OCCO4)nc2)cc1 [Example 50, 4-(6-((2,3-dihydro-[1,4]dioxino[2,3-b]pyridin-7-yl)amino)pyridin-3-yl)-N,N-dimethylbenzamide]
6 | > 1000 | > 1000 | > 1000 | CN(C)C(=O)c1ccc(-c2ccc(Nc3ccc(CCN4CCOCC4)nc3)nc2)cc1 [Example 51, N,N-dimethyl-4-(6-((6-(2-morpholinoethyl)pyridin-3-yl)amino)pyridin-3-yl)benzamide]
7 | 100 to 1000 | 10 to 100 | 10 to 100 | CN(C)C(=O)c1ccc(-c2ccc(Nc3cnc4c(c3)CCCO4)nc2)cc1 [Example 58, 4-(6-((3,4-dihydro-2H-pyrano[2,3-b]pyridin-6-yl)amino)pyridin-3-yl)-N,N-dimethylbenzamide]
8 | 100 to 1000 | 10 to 100 | 10 to 100 | CC(=O)N1CCN(C)c2ncc(Nc3ccc(-c4ccc(C(=O)N(C)C)cc4)cn3)cc21 [Example 59, 4-(6-((1-acetyl-4-methyl-1,2,3,4-tetrahydropyrido[2,3-b]pyrazin-7-yl)amino)pyridin-3-yl)-N,N-dimethylbenzamide]
9 | > 1000 | > 1000 | > 1000 | CN(C)C(=O)c1ccc(-c2ccc(Nc3ccc(N4CCOCC4)nc3)nc2)cc1 [Example 60, N,N-dimethyl-4-(6-((6-morpholinopyridin-3-yl)amino)pyridin-3-yl)benzamide]
10 | 100 to 1000 | > 1000 | 100 to 1000 | Cc1nc2ncc(Nc3ccc(-c4ccc(C(=O)N(C)C)cc4)cn3)cc2o1 [Example 61, N,N-dimethyl-4-(6-((2-methyloxazolo[4,5-b]pyridin-6-yl)amino)pyridin-3-yl)benzamide]
11 | 100 to 1000 | > 1000 | 100 to 1000 | CN(C)C(=O)c1ccc(-c2ccc(Nc3cnc4c(c3)OCO4)nc2)cc1 [Example 62, 4-(6-([1,3]dioxolo[4,5-b]pyridin-6-ylamino)pyridin-3-yl)-N,N-dimethylbenzamide]
12 | > 1000 | > 1000 | > 1000 | CN(Cc1cncs1)C(=O)c1ccc(-c2ccc(Nc3cccnc3)nc2)cc1 [Example 71, N-methyl-4-(6-(pyridin-3-ylamino)pyridin-3-yl)-N-(thiazol-5-ylmethyl)benzamide]
13 | 1 to 10 | 10 to 100 | 1 to 10 | CN(C)C(=O)c1ccc(-c2ccc(Nc3cncc(N4CCN(Cc5ccccc5)C4=O)c3)nc2)cc1 [Example 73, 4-(6-((5-(3-benzyl-2-oxoimidazolidin-1-yl)pyridin-3-yl)amino)pyridin-3-yl)-N,N-dimethylbenzamide]
14 | 10 to 100 | 10 to 100 | 10 to 100 | C[C@@H](c1ccccc1)N1CCN(c2cncc(Nc3ccc(-c4ccc(C(=O)N(C)C)cc4)cn3)c2)C1=O [Example 80, (S)—N,N-dimethyl-4-(6-((5-(2-oxo-3-(1-phenylethyl)imidazolidin-1-yl)pyridin-3-yl)amino)pyridin-3-yl)benzamide]
15 | 1 to 10 | 10 to 100 | ≤ 1 | C[C@H](c1ccccc1)N1CCN(c2cncc(Nc3ccc(-c4ccc(C(=O)N(C)C)cc4)cn3)c2)C1=O [Example 81, (R)—N,N-dimethyl-4-(6-((5-(2-oxo-3-(1-phenylethyl)imidazolidin-1-yl)pyridin-3-yl)amino)pyridin-3-yl)benzamide]
16 | 1 to 10 | 10 to 100 | 1 to 10 | O=C1CCCN1c1ccc(-c2ccc(Nc3cnc4c(c3)N3C(=O)CC[C@H]3CO4)nc2)cc1 [Example 84, (S)-2-((5-(4-(2-oxopyrrolidin-1-yl)phenyl)pyridin-2-yl)amino)-6,6a,7,8-tetrahydro-9H-pyrido[2,3-b]pyrrolo[1,2-d][1,4]oxazin-9-one]
17 | 10 to 100 | 10 to 100 | 1 to 10 | O=C1CCCN1c1ccc(-c2ccc(Nc3cnc4c(c3)N3C(=O)CC[C@@H]3CO4)nc2)cc1 [Example 85, (R)-2-((5-(4-(2-oxopyrrolidin-1-yl)phenyl)pyridin-2-yl)amino)-6,6a,7,8-tetrahydro-9H-pyrido[2,3-b]pyrrolo[1,2-d][1,4]oxazin-9-one]
18 | > 1000 | > 1000 |  | CN1CCC(c2ccc(-c3ccc(Nc4cnc5c(c4)N4C(=O)CC[C@@H]4CO5)nc3)cc2)C1=O (stereo partly drawn) [Example 269, (6aR)-2-((5-(4-(1-methyl-2-oxopyrrolidin-3-yl)phenyl)pyridin-2-yl)amino)-6,6a,7,8-tetrahydro-9H-pyrido[2,3-b]pyrrolo[1,2d][1,4]oxazin-9-one]
19 | 10 to 100 | 10 to 100 |  | C[C@@]1(O)C[C@H]2COc3ncc(Nc4ccc(-c5ccc(N6CCCC6=O)c(F)c5)cn4)cc3N2C1=O [Example 270, (6aS,8R)-2-((5-(3-fluoro-4-(2-oxopyrrolidin-1-yl)phenyl)pyridin-2-yl)amino)-8-hydroxy-8-methyl-6,6a,7,8-tetrahydro-9H-pyrido[2,3-b]pyrrolo[1,2-d][1,4]oxazin-9-one]
20 | 10 to 100 | 10 to 100 |  | C[C@@]1(O)C[C@H]2COc3ncc(Nc4ccc(-c5ccc(N6CCCC6=O)cc5)cn4)cc3N2C1=O [Example 271, (6aS,8R)-8-hydroxy-8-methyl-2-((5-(4-(2-oxopyrrolidin-1-yl)phenyl)pyridin-2-yl)amino)-6,6a,7,8-tetrahydro-9H-pyrido[2,3-b]pyrrolo[1,2-d][1,4]oxazin-9-one]
21 | 100 to 1000 | 10 to 100 |  | O=C1NCCN1c1cncc(Nc2ccc(-c3ccc(N4CCCC4=O)c(F)c3)cn2)c1 [Example 272, 1-(5-((5-(3-fluoro-4-(2-oxopyrrolidin-1-yl)phenyl)pyridin-2-yl)amino)pyridin-3-yl)imidazolidin-2-one]
22 | 1 to 10 | 10 to 100 |  | O=C1CCCN1c1ccc(-c2ccc(Nc3cnc4c(c3)N3C(=O)OC[C@H]3CO4)nc2)cc1F [Example 295, (R)-8-((5-(3-fluoro-4-(2-oxopyrrolidin-1-yl)phenyl)pyridin-2-yl)amino)-3a,4-dihydro-1H,3H-oxazolo[3,4-d]pyrido[2,3-b][1,4]oxazin-1-one]
